This is an account of results in patent US7304174B2, “CaSR antagonist” (Japan Tobacco Inc., priority 2003, dated 2007).

This experiment deals with T1, human calcium receptor (Homo sapiens, UniProt P41180).
T1 construct: expressed in transfected cells; host or cells: cell strain derived from rat adrenal, co-transformed with luciferase cDNA
T1 sequence (P41180 20-1078): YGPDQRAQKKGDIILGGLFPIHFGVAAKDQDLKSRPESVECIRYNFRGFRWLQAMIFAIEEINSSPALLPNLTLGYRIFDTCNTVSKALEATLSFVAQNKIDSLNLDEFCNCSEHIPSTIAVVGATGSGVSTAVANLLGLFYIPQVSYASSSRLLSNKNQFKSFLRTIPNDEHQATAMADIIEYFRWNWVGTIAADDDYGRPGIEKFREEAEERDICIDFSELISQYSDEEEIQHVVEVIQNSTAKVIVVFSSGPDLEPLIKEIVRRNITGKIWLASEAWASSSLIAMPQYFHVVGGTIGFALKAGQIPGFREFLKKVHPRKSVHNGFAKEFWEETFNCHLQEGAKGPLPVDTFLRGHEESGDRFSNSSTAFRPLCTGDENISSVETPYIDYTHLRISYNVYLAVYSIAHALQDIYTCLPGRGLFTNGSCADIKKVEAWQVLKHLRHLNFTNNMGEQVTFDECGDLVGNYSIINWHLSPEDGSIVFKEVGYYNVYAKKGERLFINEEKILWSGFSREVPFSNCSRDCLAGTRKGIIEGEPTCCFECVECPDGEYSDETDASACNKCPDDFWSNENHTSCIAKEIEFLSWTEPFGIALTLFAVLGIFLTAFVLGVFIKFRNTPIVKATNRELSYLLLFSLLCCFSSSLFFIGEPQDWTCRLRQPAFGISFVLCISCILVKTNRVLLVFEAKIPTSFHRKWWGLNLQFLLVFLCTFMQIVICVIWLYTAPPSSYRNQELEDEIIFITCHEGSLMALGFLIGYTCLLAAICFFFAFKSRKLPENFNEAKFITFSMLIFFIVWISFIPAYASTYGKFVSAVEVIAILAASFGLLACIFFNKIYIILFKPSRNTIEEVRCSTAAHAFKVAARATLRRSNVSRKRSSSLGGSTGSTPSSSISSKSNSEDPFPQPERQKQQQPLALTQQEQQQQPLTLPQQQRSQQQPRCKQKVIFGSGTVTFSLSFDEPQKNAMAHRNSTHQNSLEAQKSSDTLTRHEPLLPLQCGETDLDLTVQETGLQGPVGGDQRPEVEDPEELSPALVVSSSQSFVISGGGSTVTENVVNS
Put plainly: Evaluation of antagonistic action on calcium receptor using reporter gene (luciferase). The experiment is classed as cell-based. Particulars: transformed rat adrenal derived cells, 5 mM calcium chloride, culture 4 hrs, luciferase activity; read-out: Reporter gene assay (IC50, concentration showing 50% inhibitory rate). How it is done:
Evaluation of Antagonistic Action on Calcium Receptor Using Reporter Gene
Luciferase cDNA and human calcium receptor cDNA were introduced into a cell strain derived from rat adrenal to transform the cells, and the transformed cells were cultured in a medium (80 μl, F12 medium containing 0.5% dialyzed horse serum and 0.25% dialyzed bovine fetal serum). A dimethyl sulfoxide solution containing a test compound at 0.1-10000 μM was diluted 100-fold with the medium and added to the test compound group at 10 μl per well (dimethyl sulfoxide final concentration 0.1%). In the same manner as in test compound group, dimethyl sulfoxide 100-fold diluted with medium was added to a control group and a blank group. Then, 50 mM calcium chloride-containing medium was added to every well except the blank group at 10 μl per well (final concentration 5 mM). A medium containing 50 mM calcium chloride was added to the control group at 10 μl per well, such that the final calcium concentration of the medium became 5 mM. A medium alone was added to the blank group. After culture for 4 hrs, luciferase substrate was added and the luciferase activity was measured with a photoluminometer. The inhibitory rate (%) was calculated from the obtained measured values according to the following formula.
Based on the results, the concentration (IC50) showing 50% inhibitory rate was determined. The results are shown in the aforementioned Tables 1 to 60.
(In general: In a reporter assay the amount or activity of a reporter protein is the signal.)
Take `CCC(C)c1cc(-c2ccccc2[C@@H](C)OC[C@H](O)CNC(C)(C)Cc2ccc(C)c(F)c2)ccc1C(=O)O` (stereo partly drawn) [Example 1-53, 2′-[1-[(2R)-3-[[1-(3-fluoro-4-methylphenyl)-2-methylpropan-2-yl]amino]-2-hydroxypropoxy]ethyl]-3-(1-methylpropyl)biphenyl-4-carboxylic acid]: the IC50 was 15 nM.

For `Cc1cc(C(=O)O)ccc1-c1ccccc1[C@@H](C)OC[C@H](O)CNC(C)(C)Cc1ccc2ccccc2c1` [Example 1-54, 2-methyl-2′-[1-[(2R)-3-[[1-(naphthalen-2-yl)-2-methylpropan-2-yl]amino]-2-hydroxypropoxy]ethyl]biphenyl-4-carboxylic acid], the IC50 was 23 nM.

Turning to `Cc1cc(-c2ccccc2[C@@H](C)OC[C@H](O)CNC(C)(C)Cc2ccc3ccccc3c2)ccc1C(=O)O` [Example 1-55, 3-methyl-2′-[1-[(2R)-3-[[1-(naphthalen-2-yl)-2-methylpropan-2-yl]amino]-2-hydroxypropoxy]ethyl]biphenyl-4-carboxylic acid], the IC50 came out at 10 nM.

Consider `C[C@@H](OC[C@H](O)CNC(C)(C)Cc1ccc2ccccc2c1)c1ccccc1-c1ccc(F)c(C(=O)O)c1` [Example 1-56, 4-fluoro-2′-[1-[(2R)-3-[[1-(naphthalen-2-yl)-2-methylpropan-2-yl]amino]-2-hydroxypropoxy]ethyl]biphenyl-3-carboxylic acid], for which the IC50 worked out at 19 nM.

For the molecule `C[C@@H](OC[C@H](O)CNC(C)(C)Cc1ccc2ccccc2c1)c1ccccc1-c1cc(C(=O)O)ccc1F` [Example 1-58, 6-fluoro-2′-[1-[(2R)-3-[[1-(naphthalen-2-yl)-2-methylpropan-2-yl]amino]-2-hydroxypropoxy]ethyl]biphenyl-3-carboxylic acid], the IC50 stood at 21 nM.

Take `Cc1cc(-c2ccccc2[C@@H](C)OC[C@H](O)CNC(C)(C)Cc2cccc(Cl)c2)ccc1C(=O)O` [Example 1-60, 2′-[1-[(2R)-3-[[1-(3-chlorophenyl)-2-methylpropan-2-yl]amino]-2-hydroxypropoxy]ethyl]-3-methylbiphenyl-4-carboxylic acid]: the IC50 stood at 96 nM.

Regarding `Cc1cc(-c2ccccc2[C@@H](C)OC[C@H](O)CNC(C)(C)Cc2ccc(Cl)c(Cl)c2)ccc1C(=O)O` [Example 1-61, 2′-[1-[(2R)-3-[[1-(3,4-dichlorophenyl)-2-methylpropan-2-yl]amino]-2-hydroxypropoxy]ethyl]-3-methylbiphenyl-4-carboxylic acid], the IC50 came to 4 nM.

On to `C[C@@H](OC[C@H](O)CNC(C)(C)Cc1ccc2ccccc2c1)c1ccccc1-c1ccc(C(=O)O)cc1F` [Example 1-62, 2-fluoro-2′-[1-[(2R)-3-[[1-(naphthalen-2-yl)-2-methylpropan-2-yl]amino]-2-hydroxypropoxy]ethyl]biphenyl-4-carboxylic acid], for which the IC50 stood at 8 nM.

On to `Cc1cc(-c2ccccc2C(OC[C@H](O)CNC(C)(C)Cc2ccc3ccccc3c2)C2CC2)ccc1C(=O)O` (stereo partly drawn) [Example 1-63, 2′-[(cyclopropyl)[(2R)-3-[[1-(naphthalen-2-yl)-2-methylpropan-2-yl]amino]-2-hydroxypropoxy]methyl]-3-methylbiphenyl-4-carboxylic acid], for which the IC50 came to 16 nM.

With `CC(C)(Cc1ccc2ccccc2c1)NC[C@@H](O)COC(c1ccccc1-c1ccc(C(=O)O)c(F)c1)C1CC1` (stereo partly drawn) [Example 1-64, 2′-[(cyclopropyl)[(2R)-3-[[1-(naphthalen-2-yl)-2-methylpropan-2-yl]amino]-2-hydroxypropoxy]methyl]-3-fluorobiphenyl-4-carboxylic acid], the IC50 came to 17 nM.

As for `CC(C)(Cc1ccc2ccccc2c1)NC[C@@H](O)COC(c1ccccc1-c1ccc(C(=O)O)cc1F)C1CC1` (stereo partly drawn) [Example 1-65, 2′-[(cyclopropyl)[(2R)-3-[[1-(naphthalen-2-yl)-2-methylpropan-2-yl]amino]-2-hydroxypropoxy]methyl]-2-fluorobiphenyl-4-carboxylic acid], the IC50 was determined as 16 nM.

`Cc1cc(C(=O)O)ccc1-c1ccccc1C(OC[C@H](O)CNC(C)(C)Cc1ccc2ccccc2c1)C1CC1` (stereo partly drawn) [Example 1-66, 2′-[(cyclopropyl)[(2R)-3-[[1-(naphthalen-2-yl)-2-methylpropan-2-yl]amino]-2-hydroxypropoxy]methyl]-2-methylbiphenyl-4-carboxylic acid]: the IC50 was 17 nM.

On to `C[C@@H](OC[C@H](O)CNC(C)(C)Cc1ccc(Cl)c(Cl)c1)c1ccccc1-c1ccc(C(=O)O)cc1F` [Example 1-67, 2′-[1-[(2R)-3-[[1-(3,4-dichlorophenyl)-2-methylpropan-2-yl]amino]-2-hydroxypropoxy]ethyl]-2-fluorobiphenyl-4-carboxylic acid], for which the IC50 turned out to be 19 nM.

For the molecule `C[C@@H](OC[C@H](O)CNC(C)(C)Cc1ccc2ccccc2c1)c1ccccc1-c1ccc(C(=O)O)c(Cl)c1` [Example 1-68, 3-chloro-2′-[1-[(2R)-3-[[1-(naphthalen-2-yl)-2-methylpropan-2-yl]amino]-2-hydroxypropoxy]ethyl]biphenyl-4-carboxylic acid], the IC50 worked out at 3 nM.

Regarding `C[C@@H](OC[C@H](O)CNC(C)(C)Cc1ccc2ccccc2c1)c1ccccc1-c1ccc(C(=O)O)c([N+](=O)[O-])c1` [Example 1-69, 2′-[1-[(2R)-3-[[1-(naphthalen-2-yl)-2-methylpropan-2-yl]amino]-2-hydroxypropoxy]ethyl]-3-nitrobiphenyl-4-carboxylic acid], the IC50 stood at 2 nM.

Consider `C[C@@H](OC[C@H](O)CNC(C)(C)Cc1ccc2ccccc2c1)c1ccccc1-c1ccc(C(=O)O)c(N)c1` [Example 1-70, 3-amino-2′-[1-[(2R)-3-[[1-(naphthalen-2-yl)-2-methylpropan-2-yl]amino]-2-hydroxypropoxy]ethyl]biphenyl-4-carboxylic acid], for which the IC50 was found to be 5 nM.

Take `CC(=O)Nc1cc(-c2ccccc2[C@@H](C)OC[C@H](O)CNC(C)(C)Cc2ccc3ccccc3c2)ccc1C(=O)O` [Example 1-71, 3-(acetylamino)-2′-[1-[(2R)-3-[[1-(naphthalen-2-yl)-2-methylpropan-2-yl]amino]-2-hydroxypropoxy]ethyl]biphenyl-4-carboxylic acid]: the IC50 turned out to be 5 nM.

With `Cc1ccc(CC(C)(C)NC[C@@H](O)CO[C@H](C)c2ccccc2-c2ccc(C(=O)O)c(Cl)c2)cc1F` [Example 1-72, 3-chloro-2′-[1-[(2R)-3-[[1-(3-fluoro-4-methylphenyl)-2-methylpropan-2-yl]amino]-2-hydroxypropoxy]ethyl]biphenyl-4-carboxylic acid], the IC50 is 15 nM.

As to `C[C@@H](OC[C@H](O)CNC(C)(C)Cc1ccc2ccccc2c1)c1ccccc1-c1cc2c(c(C(=O)O)c1)OCC2` [Example 1-74, 2,3-dihydro-5-[2-[1-[(2R)-3-[[1-(naphthalen-2-yl)-2-methylpropan-2-yl]amino]-2-hydroxypropoxy]ethyl]phenyl]benzofuran-7-carboxylic acid], the IC50 was 11 nM.

Regarding `Cc1cc(C(=O)O)cc(C)c1-c1ccccc1[C@@H](C)OC[C@H](O)CNC(C)(C)Cc1ccc2ccccc2c1` [Example 1-75, 2,6-dimethyl-2′-[1-[(2R)-3-[[1-(naphthalen-2-yl)-2-methylpropan-2-yl]amino]-2-hydroxypropoxy]ethyl]biphenyl-4-carboxylic acid], the IC50 amounted to 12 nM.

Regarding `Cc1ccc(CC(C)(C)NC[C@@H](O)CO[C@H](C)c2ccccc2-c2c(C)cc(C(=O)O)cc2C)cc1F` [Example 1-76], the IC50 amounted to 22 nM.
